Results from patent publication US10640457B2, “Histone acetyltransferase activators and uses thereof” (The Trustees of Columbia University in the City of New York, priority 2009, dated 2020).
“And” between values parts separate entries of the source, which are not always exact repeats. Equal entries are not always repeated. “Also recorded” adds a separate entry of the source.

Columns and labels:
APP/PS1 mice = test: Contextual and cued fear conditioning in APP/PS1 mice (TSA); type: in vivo
Method: Following experiments on acute effect of TSA in synaptic dysfunction, we determined if TSA is beneficial against impairment of contextual FC in APP/PS1 mice[A17]. 4 month-old mice were divided into 4 groups: APP/PS1 with TSA, APP/PS1 with vehicle, WT with TSA and WT with vehicle. TSA and vehicle control solution were administered i.p. at a concentration of 2 μg/g body weight. We found a similar shock threshold among the various groups of mice. Then, mice were trained to associate neutral stimuli with an aversive one. They were placed in a novel context (FC box), exposed to a white noise cue paired with a mild foot shock, and injected with TSA 2 hrs before training Fear learning was assessed 24 hrs later by measuring freezing behavior—the absence of all movement except for that necessitated by breathing—in response to representation of the context. We found no difference in the freezing behavior among the 4 groups of mice during the training phase of the FC. 24 hrs later, freezing behavior was decreased in vehicle-treated APP/PS1 mice compared to vehicle-treated WT littermates in analyzing contextual learning (FIG. 18).
HDAC inhibition rescues the defect in associative memory in APP/PS1 mice. Similar to humans affected by AD [B51] […] (herein incorporated by reference in its entirety). In rodents, associative learning can be assessed by contextual fear conditioning. This behavioral task, which is based on the association of a neutral stimulus with an aversive one, is dependent on hippocampal function [B52] (herein incorporated by reference in its entirety). Thus, following experiments on acute effect of TSA in synaptic dysfunction, we determined if TSA is beneficial against impairment of contextual fear conditioning in 3-4 month old APP/PS1 mice [B14] (herein incorporated by reference in its entirety). Animals were divided into 4 groups: APP/PS1 with TSA, APP/PS1 with vehicle, WT with TSA and WT with vehicle. TSA and vehicle control solution were administered i.p. at a concentration of 2 mg/Kg body weight. We found a similar shock threshold among the various groups of mice. Then, mice were trained to associate neutral stimuli with an aversive one. They were placed in a novel context (fear conditioning box), exposed to a white noise cue paired with a mild foot shock, and injected with TSA 2 hrs before training. Fear learning was assessed 24 hrs later by measuring freezing behavior—the absence of all movement except for that necessitated by breathing—in response to representation of the context. We found no difference in the freezing behavior among the 4 groups of mice during the training phase of the fear conditioning (F3,47=0.02997, p=0.9929, n=12-13/group; FIG. 18). Twenty-four hours later, we found a decreased freezing behavior in vehicle-treated APP/PS1 mice compared to vehicle-treated WT littermates in the analysis of the contextual learning (F3,47=[…], p=0.0280, n=12-13/group; FIG. 18).
Freezing in vehicle-treated APP/PS1 mice was about 46% that of vehicle-treated WT mice [vehicle-treated APP/PS1 mice: 14.88±2.97% vs. vehicle-treated WT littermates: 31.68±5.32%; n=13 (11 females plus 2 males) and n=13 (11 females plus 2 males), respectively; t=2.76, p=0.0109; FIG. 18]. […] We next tested cued fear conditioning, a hippocampus-independent task [B46] […] (herein incorporated by reference in its entirety).

HDAC7 = molecular target: T1, HDAC7 (Homo sapiens, UniProt Q8WUI4); test: HDAC7 fluorogenic activity assay; settings: Repeat1/Repeat2, listed as OA2
T1 sequence (Q8WUI4 518-952 limits assumed): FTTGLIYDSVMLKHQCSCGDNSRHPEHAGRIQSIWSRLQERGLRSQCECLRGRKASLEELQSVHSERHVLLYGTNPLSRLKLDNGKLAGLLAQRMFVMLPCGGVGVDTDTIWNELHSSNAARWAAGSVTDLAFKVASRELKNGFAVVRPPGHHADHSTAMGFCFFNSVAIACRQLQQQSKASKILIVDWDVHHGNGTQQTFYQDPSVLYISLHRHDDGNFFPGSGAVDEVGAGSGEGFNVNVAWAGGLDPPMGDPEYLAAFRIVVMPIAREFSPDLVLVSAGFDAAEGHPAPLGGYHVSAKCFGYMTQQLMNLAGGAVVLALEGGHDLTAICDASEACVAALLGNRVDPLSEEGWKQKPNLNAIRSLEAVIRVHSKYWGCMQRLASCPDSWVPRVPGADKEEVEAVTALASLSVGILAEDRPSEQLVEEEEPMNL

HDAC10 = molecular target: T2, HDAC10 (Homo sapiens, UniProt Q969S8); test: HDAC10 fluorogenic activity assay; settings: for % Activity: Repeat1/Repeat2, listed as OA2
T2 sequence (Q969S8 1-669): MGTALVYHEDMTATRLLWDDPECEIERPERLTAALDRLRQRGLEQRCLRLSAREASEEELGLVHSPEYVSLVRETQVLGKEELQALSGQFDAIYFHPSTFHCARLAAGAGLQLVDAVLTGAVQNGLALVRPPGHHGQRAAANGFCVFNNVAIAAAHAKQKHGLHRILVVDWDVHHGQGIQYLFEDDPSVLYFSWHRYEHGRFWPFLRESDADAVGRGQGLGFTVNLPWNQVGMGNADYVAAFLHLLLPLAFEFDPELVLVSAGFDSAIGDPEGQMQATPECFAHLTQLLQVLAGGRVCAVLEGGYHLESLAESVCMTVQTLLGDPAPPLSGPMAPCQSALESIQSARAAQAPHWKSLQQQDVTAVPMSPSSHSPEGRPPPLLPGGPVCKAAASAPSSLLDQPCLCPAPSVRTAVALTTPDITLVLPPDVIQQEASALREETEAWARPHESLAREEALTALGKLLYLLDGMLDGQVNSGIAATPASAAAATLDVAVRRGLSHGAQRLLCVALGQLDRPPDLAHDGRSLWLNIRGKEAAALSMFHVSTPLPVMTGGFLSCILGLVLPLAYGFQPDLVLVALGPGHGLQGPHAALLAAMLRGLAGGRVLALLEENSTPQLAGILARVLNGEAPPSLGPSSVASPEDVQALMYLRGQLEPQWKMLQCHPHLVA

HDAC3/NCOR2 = HDAC3/NCOR2 (Homo sapiens, UniProt O15379); test: HDAC3/NCOR2 fluorogenic activity assay
Chain of HDAC3/NCOR2 (O15379 whole entry): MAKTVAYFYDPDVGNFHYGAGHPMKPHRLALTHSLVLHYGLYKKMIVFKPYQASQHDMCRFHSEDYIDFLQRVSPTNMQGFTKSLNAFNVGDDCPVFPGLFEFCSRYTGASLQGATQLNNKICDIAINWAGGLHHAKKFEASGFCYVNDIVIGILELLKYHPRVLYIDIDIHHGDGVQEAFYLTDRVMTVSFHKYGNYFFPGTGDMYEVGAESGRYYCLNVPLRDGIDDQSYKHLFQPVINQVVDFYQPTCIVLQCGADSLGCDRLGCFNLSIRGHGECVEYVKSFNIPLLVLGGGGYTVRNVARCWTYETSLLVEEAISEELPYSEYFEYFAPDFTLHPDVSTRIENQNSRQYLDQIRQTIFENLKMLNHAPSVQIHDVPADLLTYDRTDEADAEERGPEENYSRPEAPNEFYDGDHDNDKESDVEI
Chain of HDAC3/NCOR2 (Q9Y618 395-489 partner limits assumed): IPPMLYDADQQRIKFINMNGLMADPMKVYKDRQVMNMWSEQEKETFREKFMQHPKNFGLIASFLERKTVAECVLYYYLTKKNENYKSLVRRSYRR

In the case of CC(/C=C/C(=O)NO)=C\[C@@H](C)C(=O)c1ccc(N(C)C)cc1 [TSA, trichostatin A], the “contextual fear memory deficit in APP/PS1 mice” value (APP/PS1 mice; TSA i.p. 2 hrs before training) is reported as “improved memory; also recorded: ameliorates”, the “freezing time relative to vehicle-treated APP/PS1 mice” value (APP/PS1 mice; TSA-treated APP/PS1 mice, 2 mg/Kg i.p.) is reported as “about 236.27%” and the “freezing, contextual fear conditioning 24 hrs after training” value (APP/PS1 mice; TSA-treated APP/PS1 mice, 2 mg/Kg i.p. 2 hrs before training) is reported as 35.15±6.99%. For the same molecule, the “freezing, contextual fear conditioning 24 hrs after training” value (APP/PS1 mice; TSA-treated WT mice, 2 mg/Kg i.p.) was 36.95±6.43% and the “cued fear conditioning, freezing among the 4 groups” value (APP/PS1 mice; pre-CS and CS) was “did not find a difference”.
With CCOc1cccc(OCCN(C)C)c1C(=O)Nc1ccc(Cl)c(C(F)(F)F)c1 [YF2] the “% Activity” value (HDAC7; OA2 Log[nM] 0.5) was 103.11% and 97.69%, the “% Activity” value (HDAC7; OA2 Log[nM] 1.0) was 91.37% and 91.47% and the “% Activity” value (HDAC7; OA2 Log[nM] 1.5) was 101.63% and 104.98%. For the same molecule, the “% Activity” value (HDAC7; OA2 Log[nM] 2.0) was 104.61% and 97.68%, the “% Activity” value (HDAC7; OA2 Log[nM] 2.5) was 95.80% and 95.75% and the “% Activity” value (HDAC7; OA2 Log[nM] 3.0) was 96.02% and 98.69%. For the same molecule, the “% Activity” value (HDAC7; OA2 Log[nM] 3.5) was 100.73% and 92.77%, the “% Activity” value (HDAC7; OA2 Log[nM] 4.0) was 90.73% and 101.73% and the “% Activity” value (HDAC7; OA2 Log[nM] 4.5) was 95.78% and 99.80%. The “% Activity” value (HDAC7; OA2 Log[nM] 5.3) was 96.89% and 100.04%, the IC50 (HDAC10) was greater than 200 µM and the “% Activity” value (HDAC10; OA2 Log[nM] 0.5) was 91.08% and 101.05%. For the same molecule, the “% Activity” value (HDAC10; OA2 Log[nM] 1.0) was 103.77% and 104.31%, the “% Activity” value (HDAC10; OA2 Log[nM] 1.5) was 105.57% and 103.85% and the “% Activity” value (HDAC10; OA2 Log[nM] 2.0) was 103.04% and 105.77%. The “% Activity” value (HDAC10; OA2 Log[nM] 2.5) was 104.90% and 105.64%, the “% Activity” value (HDAC10; OA2 Log[nM] 3.0) was 99.94% and 104.64% and the “% Activity” value (HDAC10; OA2 Log[nM] 3.5) was 96.95% and 106.25%. For the same molecule, the “% Activity” value (HDAC10; OA2 Log[nM] 4.0) was 96.50% and 102.89%, the “% Activity” value (HDAC10; OA2 Log[nM] 4.5) was 95.38% and 102.89% and the “% Activity” value (HDAC10; OA2 Log[nM] 5.3) was 116.56% and 86.05%. For the same molecule, the IC50 (HDAC3/NCOR2) was greater than 200 µM.
